The results in this text go back to PubChem BioAssay AID179 (DTP/NCI, 2004).

pEC50, pIC50: −log10 of the molar value. Several values for one entry are separate records, joined by “and”; a condition that tells them apart may be missing. Equal entries are not always repeated. Activity calls are given as the source filed them.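 How the source made its calls: active means compounds giving half or more protection of infected cells from virus-caused growth loss, again on retest; inactive means the rest.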 Where only a bound is given, the exact number is not on record here.

The term pEC50 denotes −log10 of the EC50, conventionally taken in molar units. What is called pIC50 is the IC50 on a negative log10 scale, so that one unit is a factor of ten. Lower therefore signals a large IC50.

The test deals with CEM cells HIV-1 protection, formazan growth assay. The experiment in a line: NCI AIDS Antiviral Assay. The following applies: for pIC50: measured here: growth of uninfected CEM cells. A digest of the protocol:
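Protection of CEM cells against HIV-1 was scored from cell growth (soluble formazan) across five concentrations, with parallel uninfected cells. Lack of protection may reflect toxicity.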

On to `CC#CC(O)(C(=O)OC1CC(C)N(C)C(C)(C)C1)C1CCCC1` (stereo not given), for which the pEC50 is less than 3.70 and the pIC50 was less than 3.70.
As for `COc1cc(N=Nc2ccccc2)ccc1NCS(=O)(=O)O`, the pEC50 is less than 3.70 and the pIC50 was 3.76.
For `COC(=O)c1cc(C(=CCC(=O)N[C@H]2CC[C@@]3(C)[C@@H](CC[C@@H]4[C@@H]3CC[C@]3(C)[C@@H]([C@H](C)CCCC(C)C)CC[C@@H]43)C2)c2cc(Cl)c(OC)c(C(=O)OC)c2)cc(Cl)c1OC` the same measures were less than 3.70 and less than 3.70.
For `N[C@H](C(=O)O)[C@@H]1CC(Cl)=NO1` the same measures were less than 4.82 and less than 4.82.
In the same order, the values of `CC1(c2ccccc2)CC12C(=O)NC(=O)NC2=O` (stereo not given) are less than 3.97 and less than 3.97.
As to `NC(N)=NS(=O)(=O)c1ccc(NC(=O)c2cccc3c(Nc4ccc(S(N)(=O)=O)cc4)c4ccccc4nc23)cc1`, the pEC50 is less than 4.36 and the pIC50 was less than 4.36.
Regarding `CC(CC(C)[C@H]1CCC2[C@H]3C(CC[C@@]21C)[C@@]1(C)CCC(O)C[C@H]1C[C@@H]3O)C(=O)O` (stereo not given in full), the outcome was inactive.
For the compound `OCCN1C(c2ccccc2)=CN2C=CSC21` (stereo not given), the pEC50 is less than 3.70 and the pIC50 is 4.53.
As to `COc1cc2nncc(SCc3ccc(Cl)cc3)c2cc1OC`, the pEC50 is less than 4.11 and the pIC50 is less than 4.11.
As for `O=C1c2cscc2C(=O)c2c(OCc3ccccc3)ccc(OCc3ccccc3)c21`, the pEC50 was less than 3.70 and the pIC50 is 5.38.
On to `O=C1c2c(O)ccc(O)c2C(=O)c2c(NCCNCCO)ccc(NCCNCCO)c21`, for which the pEC50 is less than 6.15; the pIC50 was 8.73 and 8.60.
Consider `O=C1C2C3C=CC(C3)C2C2C3C=CC(C3)C12` (stereo not given), for which the pEC50 is less than 3.49 and the pIC50 is less than 3.49.
Regarding `Cc1nc2ccccc2c(=O)n1-c1ccccc1`, the pEC50 was less than 2.98 and the pIC50 was 3.20.
For `CCOC(=O)c1ccc(Nc2nc3ccccc3nc2C(=O)OCC)cc1` the same measures were less than 3.70 and less than 3.70.
For `CN1CCN(/C(N)=C(\C#N)C(=O)Nc2ccccc2)CC1` the same measures were less than 3.70 and less than 3.70.
In the same order, the values of `Cc1cc(SCC(=O)c2ccccc2[N+](=O)[O-])cc(C)[o+]1` are less than 3.70 and 4.11.
For `O=c1oc2ccccc2c2nc3cc(Cl)c(F)cc3cc12`, the pEC50 was less than 4.60 and the pIC50 is less than 4.60.
Regarding `O=C(O)Cc1cc(=O)[nH]c2c1C(=O)CCC2`, the outcome was inactive.
Regarding `O=C(/C=C/c1ccccc1)NCCC1(O)C(=O)Nc2ccccc21` (stereo not given), the pEC50 is less than 3.25 and the pIC50 was 3.28.
In the same order, the values of `COC(=O)/C(C#N)=C(\N)c1c(C)c2ccccc2oc1=N` are less than 3.70 and less than 3.70.
In the same order, the values of `CCOC(=O)C1Nc2ccccc2[C@H]2OCC[C@@H]12` (stereo not given in full) are less than 3.28 and less than 3.28.
For `CCOC(=O)c1nnc(-c2ccccc2)nc1Cl` the same measures were less than 3.70 and less than 3.70.
As for `COc1ccc([C@H]2c3cc4c(cc3OC(O)(CO)[C@H]2C(=O)O)OCO4)c(OC)c1` (stereo not given in full) (tested in a mixture with another compound), the result was inactive.
As to `COc1cc(Br)c(CC2NCCc3cc(OC)c(OC)cc32)cc1OC` (stereo not given), the pEC50 is less than 3.65 and the pIC50 is less than 3.65.
In the case of `COC(=O)C(=O)C(C(=O)C(=O)Nc1ccc([N+](=O)[O-])cc1C#N)c1nc2ccc([N+](=O)[O-])cc2[nH]c1=O` (stereo not given), the pEC50 was less than 3.31 and the pIC50 is 3.68.
In the same order, the values of `NCCS/C=C/C(=O)OCc1ccc(Br)cc1` are less than 3.15 and 4.01.
With `COc1ccccc1C1SCC(=O)N1c1ccc(-c2ccc(-n3c(-c4ccccc4)nc4ccccc4c3=O)cc2)cc1` (stereo not given), the pEC50 is less than 3.70 and the pIC50 was less than 3.70.
Regarding `COc1ccc(/C=c2\sc3nnc(CCC(=O)Nc4cccc(C(F)(F)F)c4)n3c2=O)cc1`, the pEC50 was less than 5.12 and the pIC50 was less than 5.12.
`CC(C)=NNc1snnc1C(N)=O`: the pEC50 is less than 3.70 and the pIC50 is less than 3.70.
For the compound `Cc1ccc(NC(=O)CC2Sc3ccccc3NC2=O)cc1C` (stereo not given), the pEC50 is less than 5.21 and the pIC50 is less than 5.21.
As to `CC(C)[C@@H]1CC[C@]2(COC(=O)CC3(CC(=O)O)CCCC3)CC[C@]3(C)[C@H](CC[C@@H]4[C@@]5(C)CC[C@H](OC(=O)CC6(CC(=O)O)CCCC6)C(C)(C)[C@@H]5CC[C@]43C)[C@@H]12`, the pEC50 was less than 3.70 and the negative-log IC50 (pIC50) is 5.19.
For `CN(c1ccc(C(=O)c2ccc(N(C)S(C)(=O)=O)cc2)cc1)S(C)(=O)=O` the same measures were less than 4.60 and less than 4.60.
As for `COc1ccc(NC(=O)CC(=O)N2N=C(N3CCCCC3)CC2c2ccccc2)cc1` (stereo not given), the pEC50 was less than 3.70 and the pIC50 was less than 3.70.
Turning to `N#Cc1ccc(-n2cccc2)cc1`, the pEC50 was less than 3.70 and the pIC50 is less than 3.70.
On to `Cc1ccc(C(=O)O)c(O)c1`, for which the pEC50 was less than 2.79 and the pIC50 is 2.98.
For `C=C=C(CC1CCCCC1=O)S(=O)(=O)c1ccccc1` (stereo not given) the same measures were less than 3.70 and 5.19.
In the same order, the values of `COC(=O)c1c2c(cc3c1CC1(Cc4cc5c(c(C(C)=O)c4C1)CCCC5)C3)CCCC2` (stereo not given) are less than 3.70 and less than 3.70.
For `CC(=O)c1cccc(NC(=O)C(=O)c2c(O)c3ccccc3oc2=O)c1` the same measures were less than 3.15 and 3.42.
For the compound `CCc1cccc(C(C)(C)C)c1NC(=S)/N=C/C(C(=O)c1ccccc1)=C(\O)c1ccccc1`, the pEC50 was less than 3.70 and the pIC50 was 4.29.
As to `CC1(C)CC2=C(SC3C=CC=CC3N2)C(=O)C1C(=O)C(N)=O` (stereo not given), the pEC50 was less than 4.23 and the pIC50 is less than 4.23.
Take `O=C1C2=C(c3ccccc31)C(c1ccccc1)NC(=S)N2` (stereo not given): the pEC50 is less than 4.05 and the pIC50 was 4.43.
In the same order, the values of `CC(=O)SSC12CC3CC(CC(C3)C1)C2` are less than 3.70 and less than 3.70.
In the same order, the values of `Cc1cn(C2CC(S(=O)c3ccccc3)C(CO)O2)c(=O)[nH]c1=O` (stereo not given) are less than 3.70 and less than 3.70.
For `CN1C(CC(O)c2ccccc2)CCCC1CC(O)(c1ccccc1)c1ccccc1` (stereo not given) the same measures were less than 3.97 and 4.64.
As to `CN(CCO)CC(O)Cn1cnc2c1c(=O)n(C)c(=O)n2C` (stereo not given) (tested in a mixture with another compound), the pEC50 is less than 3.70 and the pIC50 is less than 3.70.
With `COc1ccc(/C=C/C(=O)c2ccccc2)cc1`, the pEC50 was less than 4.38 and the pIC50 was 4.61.
For the compound `CN1C(=O)CCSC1=S`, the outcome was inactive.
Same read-out and setting: to `COc1ccc(O[C@H](COCc2ccccc2)C[C@@H]2COC(C)(C)O2)cc1` belongs “inactive”.
As to `Cc1ccc2c(c1)P(=O)(O)c1cc(C)ccc1O2`, the pEC50 was less than 3.70 and the pIC50 is less than 3.70.
For the compound `CCN1C[C@]2(COC)CCC(OC)C34[C@@H]5C[C@@H]6C(O)[C@@H]5[C@](O)(C[C@@H]6OC)[C@@H](C[C@@H]32)[C@H]14` (stereo not given in full), the outcome was inactive.
On the same count and under the same terms, the entry for `CC(=O)c1ccc(NC(=O)/C(Cc2ccccn2)=N/NC(=O)C[N+](C)(C)C)cc1` is “inactive”.
